Where two headings read alike, the source gives them in different places.
Tests used:
Type in all cases: in vivo
Phytophthora infestans = details: for Test D disease control rating (100 = 100% disease control, 0 = no disease control): tomato seedlings sprayed to run-off, inoculated the following day, rating relative to controls, unmarked compounds (standard test rate); for Test D disease control rating: tomato late blight
[1] = system: Eiysiphe graminis f. sp. tritici; experiment: Test A: wheat powdery mildew, preventive spray on wheat seedlings; details: for Test A disease control rating (100 = 100% disease control, 0 = no disease control): wheat seedlings sprayed to run-off, inoculated the following day, rating relative to controls, unmarked compounds (standard test rate); for Test A disease control rating: wheat powdery mildew
Summary of the method: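 Preventive test: seedlings inoculated with powdery mildew spores one day after run-off spraying of a suspension. Ratings after 7 days in a 20° C growth chamber express percent disease control versus controls.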

Pyricularia oryzae = details: for Test C disease control rating (100 = 100% disease control, 0 = no disease control): rice seedlings sprayed to run-off, inoculated the following day, rating relative to controls, unmarked compounds (standard test rate); for Test C disease control rating: rice blast
Puccinia recondita = experiment: Test B: wheat leaf rust, preventive spray on wheat seedlings; details: for Test B disease control rating (100 = 100% disease control, 0 = no disease control): wheat seedlings sprayed to run-off, inoculated the following day, rating relative to controls, unmarked compounds (standard test rate); for Test B disease control rating: wheat leaf rust
Summary of the method: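 Preventive test: P. recondita spores were applied one day after a run-off spray of compound suspension on wheat seedlings. Plants had 24 h at 20 °C in saturated air plus 6 days in a 20 °C growth chamber. Scoring is % disease control (100 = full) relative to controls.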

Botrytis cinerea = experiment: Test E: gray mold, preventive spray on cucumber seedlings; details: for Test E disease control rating (100 = 100% disease control, 0 = no disease control): cucumber seedlings sprayed to run-off, inoculated the following day, rating relative to controls, unmarked compounds (standard test rate); for Test E disease control rating: gray mold on cucumber
Summary of the method: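 Preventive spray on cucumber seedlings used a suspension (3% acetone, 250 ppm Trem 014), applied to run-off one day before inoculation with Botrytis cinerea spores. Plants were held 48 h at 20° C in saturated air, then 5 days at 20° C. Percent disease control was scored relative to untreated plants.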

[2] = 100 = 100% disease control, 0 = no control, unmarked entries (standard test concentration)
[3] = 100 = 100% disease control, 0 = no control relative to controls, unmarked entries (standard test concentration)

Compound: CCC1(C(=O)NC(C)COc2ccc(C(C)(C)C)cc2)C(C)C1(Cl)Cl (stereo not shown) [compound 241]
- Test D disease control rating (100 = 100% disease control, 0 = no disease control) (Phytophthora infestans): 74%
- Test A disease control rating (100 = 100% disease control, 0 = no disease control) [1]: 38%
- Test C disease control rating (100 = 100% disease control, 0 = no disease control) (Pyricularia oryzae): 74%
- Test B disease control rating (100 = 100% disease control, 0 = no disease control) (Puccinia recondita): 0%
- Test E disease control rating (100 = 100% disease control, 0 = no disease control) (Botrytis cinerea): 0%

Compound: CC(COc1cc(F)ccc1Cl)NC(=O)C(C#N)C(C)(C)C (mixture of isomers) [191c]
- Test D disease control rating (Phytophthora infestans; [2]): 23%
- Test A disease control rating [1, 3]: 86%
- Test C disease control rating (Pyricularia oryzae; [2]): 100%
- Test B disease control rating (Puccinia recondita; [2]): 0%
- Test E disease control rating (Botrytis cinerea; [2]): 0%

Compound: C[C@H](COc1cccc(C(F)(F)F)c1)NC(=O)C(C#N)C(C)(C)C (single isomer, unassigned) [18a]
- Test D disease control rating (Phytophthora infestans; [2]): 0%
- Test A disease control rating [1, 3]: 0%
- Test C disease control rating (Pyricularia oryzae; [2]): 91%
- Test B disease control rating (Puccinia recondita; [2]): 0%
- Test E disease control rating (Botrytis cinerea; [2]): 0%

Compound: C[C@H](COc1cc(F)c(Cl)cc1F)NC(=O)C(C#N)C(C)(C)C (single isomer, unassigned) [173a]
- Test D disease control rating (Phytophthora infestans; [2]): 33%
- Test A disease control rating [1, 3]: 63%
- Test C disease control rating (Pyricularia oryzae; [2]): 52%
- Test B disease control rating (Puccinia recondita; [2]): 28%
- Test E disease control rating (Botrytis cinerea; [2]): 0%

Compound: CCC1(C(=O)NCC=Cc2cccc(Br)c2)C(C)C1(Cl)Cl (stereo not shown) [compound 160]
- Test D disease control rating (Phytophthora infestans; tested at 40 ppm): 85%
- Test A disease control rating ([1]; tested at 40 ppm): 57%
- Test C disease control rating (Pyricularia oryzae; tested at 40 ppm): 52%
- Test B disease control rating (Puccinia recondita; tested at 40 ppm): 86%
- Test E disease control rating (Botrytis cinerea; tested at 40 ppm): 0%

Compound: CCC(C)c1ccccc1OCC(C)NC(=O)C(C#N)C(C)(C)C (mixture of isomers) [compound 306]
- Test D disease control rating (100 = 100% disease control, 0 = no disease control) (Phytophthora infestans): 0%
- Test A disease control rating (100 = 100% disease control, 0 = no disease control) [1]: 0%
- Test C disease control rating (100 = 100% disease control, 0 = no disease control) (Pyricularia oryzae): 99%
- Test B disease control rating (100 = 100% disease control, 0 = no disease control) (Puccinia recondita): 67%
- Test E disease control rating (100 = 100% disease control, 0 = no disease control) (Botrytis cinerea): 94%

Compound: CCC1(C(=O)NC(C)COc2ccc(Br)cc2)C(C)C1(Cl)Cl (mixture of isomers) [86a]
- Test D disease control rating (Phytophthora infestans; tested at 40 ppm): 0%
- Test A disease control rating ([1]; tested at 40 ppm): 0%
- Test C disease control rating (Pyricularia oryzae; tested at 40 ppm): 0%
- Test B disease control rating (Puccinia recondita; tested at 40 ppm): 67%
- Test E disease control rating (Botrytis cinerea; tested at 40 ppm): 0%

Compound: CC(COc1cc(F)ccc1Cl)NC(=O)C(C#N)C(C)C(C)(C)C (mixture of isomers) [compound 194]
- Test D disease control rating (Phytophthora infestans; [2]): 0%
- Test A disease control rating [1, 3]: 0%
- Test C disease control rating (Pyricularia oryzae; [2]): 100%
- Test B disease control rating (Puccinia recondita; [2]): 0%
- Test E disease control rating (Botrytis cinerea; [2]): 0%

Compound: CC(COc1cccc(F)c1)NC(=O)C(C#N)C(C)(C)C (mixture of isomers) [3a]
- Test D disease control rating (Phytophthora infestans; [2]): 0%
- Test A disease control rating [1, 3]: 85%
- Test C disease control rating (Pyricularia oryzae; [2]): 94%
- Test B disease control rating (Puccinia recondita; [2]): 0%
- Test E disease control rating (Botrytis cinerea; [2]): 55%

Compound: C=CCc1cccc(C#N)c1OCC(C)NC(=O)C(C#N)C(C)(C)C (mixture of isomers) [compound 204]
- Test D disease control rating (Phytophthora infestans; [2]): 0%
- Test A disease control rating [1, 3]: 0%
- Test C disease control rating (Pyricularia oryzae; [2]): 74%
- Test B disease control rating (Puccinia recondita; [2]): 0%
- Test E disease control rating (Botrytis cinerea; [2]): 0%

Compound: CC(COc1ccc(F)cc1)NC(=O)C(C#N)C(C)(C)C (mixture of isomers) [4c]
- Test D disease control rating (Phytophthora infestans; [2]): 0%
- Test A disease control rating [1, 3]: 35%
- Test C disease control rating (Pyricularia oryzae; [2]): 94%
- Test B disease control rating (Puccinia recondita; [2]): 0%
- Test E disease control rating (Botrytis cinerea; [2]): 58%

Compound: C=CC(C)(CC)C(C#N)C(=O)NC(C)COc1cc(F)ccc1Cl (mixture of isomers) [compound 298]
- Test D disease control rating (100 = 100% disease control, 0 = no disease control) (Phytophthora infestans): 99%
- Test A disease control rating (100 = 100% disease control, 0 = no disease control) [1]: 62%
- Test C disease control rating (100 = 100% disease control, 0 = no disease control) (Pyricularia oryzae): 99%
- Test B disease control rating (100 = 100% disease control, 0 = no disease control) (Puccinia recondita): 0%
- Test E disease control rating (100 = 100% disease control, 0 = no disease control) (Botrytis cinerea): 0%

Compound: CCC1(C(=O)NC(C)COc2ccccc2CC#N)C(C)C1(Cl)Cl (stereo not shown) [compound 103]
- Test D disease control rating (Phytophthora infestans; [2]): 0%
- Test A disease control rating [1, 3]: 0%
- Test C disease control rating (Pyricularia oryzae; [2]): 53%
- Test B disease control rating (Puccinia recondita; [2]): 26%
- Test E disease control rating (Botrytis cinerea; [2]): 0%

Compound: CC(COc1c(C#N)cccc1C(F)(F)F)NC(=O)C(C#N)C(C)C(C)(C)C (mixture of isomers) [compound 68]
- Test D disease control rating (Phytophthora infestans; [2]): 82%
- Test A disease control rating [1, 3]: 62%
- Test C disease control rating (Pyricularia oryzae; [2]): 86%
- Test B disease control rating (Puccinia recondita; [2]): 27%
- Test E disease control rating (Botrytis cinerea; [2]): 0%

Reference: patent US6642392B1 (priority 1997, dated 2003)
